Tested on: special ginsenosidase type-I
Conditions: 0.02 M acetate buffer pH 5.0, 45°C; hydrolysis of 3-O-Glc of Rb2 to C-O

Q: How did the Km turn out when `CC(C)=CCC[C@](C)(O[C@@H]1O[C@H](CO[C@@H]2OC[C@H](O)[C@H](O)[C@H]2O)[C@@H](O)[C@H](O)[C@H]1O)[C@H]1CC[C@]2(C)[C@@H]1[C@H](O)C[C@@H]1[C@@]3(C)CC[C@H](O[C@@H]4O[C@H](CO)[C@@H](O)[C@H](O)[C@H]4O[C@@H]4O[C@H](CO)[C@@H](O)[C@H](O)[C@H]4O)C(C)(C)[C@@H]3CC[C@]12C` [Rb2] was run?
A: 20.4 ± 2.1 mM

— PMC4506373 (Journal of Ginseng Research, 2014)
